“And” between values parts separate entries of the source, which are not always exact repeats. Identical values can stand only once.
What was measured:
[1] = Struck et al. 1966; cited from earlier work
P388 leukemia = assay: in vivo ip P388 lymphocytic leukemia mouse model (increase in lifespan); parameters: species or system mouse (B6D2F1); settings: ip Days 1 through 5; figures separated by slashes are from separate experiments; ≥25 percent ILS considered active
Text: P388 lymphocytic leukemia is currently the most widely used animal tumor model for screening for antitumor agents and for detailed evaluation of active compounds. This tumor system is widely accepted as an antitumor agent screening tool because it is sensitive to virtually all of the clinically active antineoplastic agents; quantitative and reproducible; amenable for large-scale screening; and predictive for activity in other animal tumor models.
(§1) 10^6 P388 leukemia cells are inoculated ip in B6D2F1 mice. Twenty-four hours later, if the tumor inoculum proves to be free of bacterial contamination (as determined by 24 hours incubation in thioglycollate broth), animals are randomized into groups of 6 and housed in shoebox cages. The compound to be evaluated is dissolved in a minimal volume of either N,N-dimethylacetamide (DMA) or 95% ethanol (depending upon solubility). An equal volume of saline is added; if the drug comes out of solution an equal volume of polyethoxylated castor oil is added and then saline qs to a concentration such that the desired dose is delivered in 0.5 ml. The final concentration of DMA, ethanol and polyethoxylated castor oil is 10 percent. […] Animals are monitored daily for mortality and experiments are terminated after 45 days. […]

[2] = maximally tolerated dose in mice, ip qDx5 regimen (P388 experiment); type: in vivo, mouse (B62DF female); settings: B62DF female mice
Description: as §1, with “percent. Dilutions for lower doses are made with saline so there is a decreasing proportion of organic solvents in the vehicle with decreasing dosage These vehicles provide soluble formulations (or suspensions). Formulations are prepared immediately prior to injection. The compound is administered ip on Days 1 through 5 (i.e. treatment is initiated 24 hrs after tumor inoculation). Each experiment includes three groups of 6 animals as untreated controls and animals treated with a positive control, cisplatin, at two dose levels.” for “percent.”

B16 melanoma = assay: in vivo ip B16 melanoma assay (increase in lifespan); parameters: species or system mouse (B6D2F1); settings: ip daily for ten (10) days; ILS of ≥25% indicates activity
Description: (§2) In this system, groups of eight B6D2F1 mice are inoculated ip with 0.5 ml of a 10% (w:v) brei of B16 melanoma prepared from pooled sc tumors excised at 14-21 days from […] donor mice. Daily treatment is begun 24 hours after tumor implantation and is continued daily for ten (10) days. The route of drug administration is ip. The mice are monitored daily for survival for sixty (60) days. Antitumor activity is assessed by prolongation of median survival time. An ILS of ≥25% indicates activity in this tumor model.

[3] = maximally tolerated dose in mice, ip qD x 10 regimen (B16 experiment); type: in vivo, mouse (B6D2F1); settings: B6D2F1 mice, ip qD × 10 regimen
Description: as §2
^(b) maximally tolerated dose for B6D2F1 mice on a ip qD ×

In the case of `c1ccc(P(CCP(c2ccccc2)c2ccccc2)c2ccccc2)cc1` [1,2-bis(diphenylphosphino)ethane], the “cytotoxic activity (in words)” value [1] is given as “cytotoxic activity”.

For “Dichlorobis[1,2-bis(diethylphosphino)ethane]digold [Compound 2]”, the “ILS (max): maximum increase in lifespan, mice bearing ip P388 leukemia” value (P388 leukemia) was 29% and the “MTD (maximally tolerated dose)” value [2] was 16 mg/kg.

In the case of “Dichlorobis[1,2-bis(diphenylphosphino)ethane]digold [Compound 1]”, the “ILS: maximum increase in lifespan, mice bearing ip B16 melanoma” value (B16 melanoma) was 35%, the “MTD (maximally tolerated dose)” value [3] was 4 mg/kg and the “ILS (max): maximum increase in lifespan, mice bearing ip P388 leukemia” value (P388 leukemia) was 81% and 91% and 55%. For the same compound, the “MTD (maximally tolerated dose)” value [2] was 8 mg/kg.
